Results published in patent US7662810B2, “2-arylmethylazetidine carbapenem derivatives and preparation thereof” (Korea Research Institute of Chemical Technology, priority 2004, dated 2010).
Converted amounts (≈) assume the structure as drawn. Where two headings read alike, the source gives them in different places.

What was measured:
[1] = Test of Pharmacokinetics in Animals (mice); assay type: in vivo; settings: mouse, 40 mg/kg
Experimental: The pharmacokinetics of the carbapenem derivatives of the present invention was determined using mice. […] Standard antibiotic samples were prepared by serial two-fold dilution with control blood. […] PK (pharmacokinetic) change indicators (AUC, Tmax, Cmax and T1/2) of the test compound concentration remaining in the mouse blood over time were assayed over a set period.

[2] = Test of Pharmacokinetics in Animals (rats); assay type: in vivo; settings: rat, 20 mg/kg
Experimental: The pharmacokinetics of the carbapenem derivatives of the present invention was determined using mice. Each of the compounds of Examples 13 and 14 and meropenem (a positive control) was dissolved in distilled water, and mice were orally administered (PO) or subcutaneously injected (SC) at a dosage of 40 mg/kg body weight (I.C.R mice, weighing 22 to 25 g, 4 mice/group). Blood samples were withdrawn from mice tails using heparinated capillaries at 10 min., 20 min., 30 min., 45 min., 1 hour, 2 hours, 3 hours and 4 hours after the administration.
Standard antibiotic samples were prepared by serial two-fold dilution with control blood. Agar plates were prepared with Müller-Hinton agar medium containing 6.7% sheep blood and 1% Streptococcus pyogenes 77A culture solution, and the diluted standard and blood samples were added to wells formed on the plates. The plate was stored at 4° C. for 1 hour to allow the sample to spread, and incubated at 37° C. for 18 hours. PK (pharmacokinetic) change indicators (AUC, Tmax, Cmax and T1/2) of the test compound concentration remaining in the mouse blood over time were assayed over a set period.
Then, pharmacokinetical assay (amount of medicament administered was 20 mg/kg) was carried out as above using rats.

Escherichia coli DC 2 = test: Measurement of Minimum Inhibitory Concentration (MIC); assay type: cell-based
Experimental: (§1) The antibacterial activities of the compounds of the present invention prepared in the above Examples against Gram-positive and Gram-negative bacteria, MRSA and QRS were tested as follows.
(§2) Respective bacterial strains were inoculated into 3 ml of Fleisch extract broth (beef extract 1%, peptone 1%, NaCl 0.3%, Na2HPO4.12H2O 0.2%, pH 7.4-7.5. 10% horse serum was supplemented for Streptococcus pyogenes and S. facium) and cultured on a shaking incubator at 37° C. for 18 hours. About 10^4 CFU/spot of the cultured bacterial strains were inoculated onto Müller-Hinton agar plates containing serial double dilutions (final concentration of 0.002 to 100 μg/ml) of a test compound employing an automatic inoculator (Dynatech, USA), and incubated at 37° C. for 18 hours. When the incubation was completed, the minimum inhibitory concentration was determined. Meropenem (Yuhan corporation, Korea) and vancomycin (Cj Inco., Korea) were used as standard antibiotics, respectively.

[3] = system: Enterobacter cloacae P 99; test: as above; assay type: cell-based
Experimental: as §1, §2

[4] = system: Staphylococcus aureus 503; test: as above; assay type: cell-based
Experimental: as §1, §2

Escherichia coli DC 0 = test: as above; assay type: cell-based
Experimental: as §1, §2

[5] = system: Staphylococcus aureus 692E; test: Measurement of Minimum Inhibitory Concentration (MIC), MRSA; assay type: cell-based; settings: Staphylococcus aureus 692E
Experimental: as §1, §2

[6] = system: Staphylococcus aureus 695E; test: as above; assay type: cell-based; settings: Staphylococcus aureus 695E
Experimental: as §1, §2

[7] = system: Staphylococcus aureus 697E; test: as above; assay type: cell-based; settings: Staphylococcus aureus 697E
Experimental: as §1, §2

[8] = system: Staphylococcus aureus 693E; test: as above; assay type: cell-based; settings: Staphylococcus aureus 693E
Experimental: as §1, §2

[9] = system: Staphylococcus aureus 88E; test: as above; assay type: cell-based
Experimental: as §1, §2

[10] = system: Staphylococcus aureus 256E; test: as above; assay type: cell-based; settings: Staphylococcus aureus 256E
Experimental: as §1, §2

[11] = system: Staphylococcus aureus 208E; test: as above; assay type: cell-based; settings: Staphylococcus aureus 208E
Experimental: as §1, §2

[12] = system: Staphylococcus aureus 694E; test: as above; assay type: cell-based; settings: Staphylococcus aureus 694E
Experimental: as §1, §2

[13] = system: Staphylococcus aureus 690E; test: as above; assay type: cell-based; settings: Staphylococcus aureus 690E
Experimental: as §1, §2

[14] = system: Staphylococcus aureus 121E; test: as above; assay type: cell-based
Experimental: as §1, §2

[15] = system: Staphylococcus pyogenes 77A; test: Determination of Protection Dose (PD50) in Infected Animal Model; assay type: in vivo; settings: mice infected intraperitoneally with Staphylococcus pyogenes 77A; compound injected intraperitoneally 1 hour after the infection
Experimental: (§3) In order to get the lethal dose (LD100) of bacteria, […] pyogenes 77A and Escherichia coli 078 were each diluted by 10^2˜10^9 times. […] For a main experiment, 3 to 4 week-old SPF ICR male mice were divided into 4 groups each of 8 to 10 mice, and fasted for 24 hours before a test. The solutions of […] pyogenes 77A and Escherichia coli 078 were concentrated to a level that was 2 to 10 times of LD100, and the concentrated […] pyogenes 77A solution mixed with 10% horse serum and the concentrated Escherichia coli 078 solution mixed with 5% hog gastric mucin were each injected intraperitoneally into the mice of each group to induce whole body infection.
(§4) The serially diluted solutions of the compound of Example 14 or meropenem (5 different concentrations) were injected intraperitoneally into the infected mice 1 hour after the infection. All of the mice in the control group injected with physiological salt solution died within 48 hours. The number of survived mouse in each group injected with antibacterial material, were counted to determine PD50, and the 95% confidence interval thereof was calculated employing Probit method.

Escherichia coli 078 = test: as above; assay type: in vivo; settings: mice infected intraperitoneally with Escherichia coli 078; compound injected intraperitoneally 1 hour after the infection
Experimental: as §3, §4

[16] = system: Staphylococcus epidermidis 178; test: Measurement of Minimum Inhibitory Concentration (MIC), QRS; assay type: cell-based; settings: QRS, Staphylococcus epidermidis 178
Experimental: as §1, §2

[17] = system: Staphylococcus aureus 293; test: as above; assay type: cell-based; settings: QRS, Staphylococcus aureus 293
Experimental: as §1, §2

[18] = system: Staphylococcus aureus 241; test: as above; assay type: cell-based
Experimental: as §1, §2

[19] = system: Staphylococcus epidermidis 291; test: as above; assay type: cell-based; settings: QRS, Staphylococcus epidermidis 291
Experimental: as §1, §2

[20] = system: Staphylococcus aureus 179; test: as above; assay type: cell-based
Experimental: as §1, §2

## COc1ccc(CN2CC(SC3=C(C(=O)[O-])N4C(=O)[C@H]([C@@H](C)O)[C@H]4[C@H]3C)C2)cc1.[K+] [Exam. 14, Potassium(1R,5S,6S)-2-[1-(4-methoxybenzyl)-azetidine-3-yl-thio]-6-[(1R)-1-hydroxylethyl]-1-methylcarbapen-2-em-3-carboxylate]
[1]; in vivo
  AUC, times higher than meropenem: 10 to 12 times
  increase in T1/2 than meropenem: more than 2 times
[1]; in vivo, po
  AUC (area under blood-medicament concentration curve till 24 hours from administration): 5200 ng·h/mL
  Cmax: 2070 ng/mL
  T1/2 (half time of blood-medicament concentration): 124 min
  Tmax: 26.4 min
  absorption through the oral route: absorbed through the oral route to significant extents
[1]; in vivo, sc
  AUC (area under blood-medicament concentration curve till 24 hours from administration): 79660 ng·h/mL
  Cmax: 69610 ng/mL
  T1/2 (half time of blood-medicament concentration): 45.6 min
  Tmax: 15 min
[2]; in vivo
  AUC, times higher than meropenem: 17 times
  increase in T1/2 than meropenem: more than 2 times
[2]; in vivo, po
  AUC (area under blood-medicament concentration curve till 24 hours after administration): 330 ng·h/mL
  Cmax: 200 ng/mL
  T1/2 (half time of blood-medicament concentration): 304 min
  Tmax: 42.6 min
  absorption through the oral route: absorbed through the oral route to a significant extent
[2]; in vivo, sc
  AUC (area under blood-medicament concentration curve till 24 hours after administration): 34580 ng·h/mL
  Cmax: 35850 ng/mL
  T1/2 (half time of blood-medicament concentration): 41.4 min
  Tmax: 22.2 min
Escherichia coli DC 2
  MIC: 0.049 µg/mL
[3]
  MIC: 0.391 µg/mL
[4]
  MIC: 0.025 µg/mL
Escherichia coli DC 0
  MIC: 0.049 µg/mL
[5]
  MIC: 0.391 µg/mL
[6]
  MIC: 0.098 µg/mL
[7]
  MIC: 0.195 µg/mL
[8]
  MIC: 0.391 µg/mL
[9]; Staphylococcus aureus 88E
  MIC: 0.1951 µg/mL
[10]
  MIC: 0.025 µg/mL
[11]
  MIC: 0.049 µg/mL
[12]
  MIC: 0.098 µg/mL
[13]
  MIC: 0.391 µg/mL
[14]; Staphylococcus aureus 121E
  MIC: 0.098 µg/mL
[15]
  PD50: 3.05 mg/kg
Escherichia coli 078
  PD50: 1.44 mg/kg
[16]
  MIC: 0.391 µg/mL
[17]
  MIC: 0.098 µg/mL
[18]; QRS, Staphylococcus aureus 241
  MIC: 0.049 µg/mL
[19]
  MIC: 0.391 µg/mL
[20]; QRS, Staphylococcus aureus 179
  MIC: 0.049 µg/mL

## C[C@@H](O)[C@H]1C(=O)N2C(C(=O)O)=C(S[C@@H]3CN[C@H](C(=O)N(C)C)C3)[C@H](C)[C@H]12 [Meropenem, reference compound]
[1]; ICR, whole blood, mice, SC, read-out: AUC (area under blood-medicament concentration curve till 24 hours from administration)
  AUC: 7500 ng·h/mL
[1]; ICR, whole blood, mice, SC, read-out: Cmax
  Cmax: 13400 ng/mL
[1]; ICR, whole blood, mice, SC, read-out: T1/2 (half time of blood-medicament concentration) (converted)
  half-life: 25.8 min
[1]; ICR, whole blood, mice, SC, read-out: Tmax
  Tmax: 19.8 min
[2]; whole blood, rats, SC, read-out: AUC (area under blood-medicament concentration curve till 24 hours after administration)
  AUC: 2050 ng·h/mL
[2]; whole blood, rats, SC, read-out: Cmax
  Cmax: 3920 ng/mL
[2]; whole blood, rats, SC, read-out: T1/2 (half time of blood-medicament concentration) (converted)
  half-life: 18.6 min
[2]; whole blood, rats, SC, read-out: Tmax
  Tmax: 15 min
Escherichia coli DC 2
  MIC: 0.025 µg/mL (≈ 0.0652 µM)
[3]; P99, read-out: MIC
  MIC: 0.049 µg/mL (≈ 0.128 µM)
[4]; read-out: MIC
  MIC: 0.049 µg/mL (≈ 0.128 µM)
Escherichia coli DC 0; DC0, read-out: MIC
  MIC: 0.025 µg/mL (≈ 0.0652 µM)
[5]; read-out: MIC
  MIC: 0.098 µg/mL (≈ 0.256 µM)
[6]; read-out: MIC
  MIC: 0.781 µg/mL (≈ 2.04 µM)
[7]; read-out: MIC
  MIC: 0.098 µg/mL (≈ 0.256 µM)
[8]; read-out: MIC
  MIC: 6.25 µg/mL (≈ 16.3 µM)
[9]; Staphylococcus aureus
  MIC: 0.195 µg/mL (≈ 0.509 µM)
[10]; read-out: MIC
  MIC: 0.049 µg/mL (≈ 0.128 µM)
[11]; read-out: MIC
  MIC: 0.098 µg/mL (≈ 0.256 µM)
[12]; read-out: MIC
  MIC: 6.25 µg/mL (≈ 16.3 µM)
[13]; read-out: MIC
  MIC: 3.12 µg/mL (≈ 8.15 µM)
[14]; Staphylococcus aureus
  MIC: 0.195 µg/mL (≈ 0.509 µM)
[15]
  PD50: 9.13 mg/kg
Escherichia coli 078
  PD50: 3.31 mg/kg
[16]; read-out: MIC
  MIC: 0.781 µg/mL (≈ 2.04 µM)
[17]; read-out: MIC
  MIC: 0.781 µg/mL (≈ 2.04 µM)
[18]; Staphylococcus aureus, 241
  MIC: 0.195 µg/mL (≈ 0.509 µM)
[19]; read-out: MIC
  MIC: 1.56 µg/mL (≈ 4.08 µM)
[20]; Staphylococcus aureus, 179
  MIC: 0.195 µg/mL (≈ 0.509 µM)
